The results in this text go back to patent US7994204B2, “Binding inhibitor of sphingosine-1-phosphate” (Taisho Pharmaceutical Co., Ltd, priority 2006, dated 2011).

In data set [1] the target is T1, human Edg-1 (S1P1) (Homo sapiens, UniProt P21453).
T1 construct: expressed in transfected cells; host or cells: HEK-293
The data set can be described thus: S1P1 binding inhibition test (membrane, [33P]-S1P). The note with it: for inhibition at 10 µM: compound 10 μM, [33P]-S1P 0.1 nM, human Edg-1 (S1P1) HEK-293 membrane fraction, read-out: Binding test (membrane) % inhibition (10 μM); for pIC50: membrane system binding test, various concentrations. The procedure, abridged: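 Membranes from Edg-1 (S1P1)-expressing HEK-293 cells incubated 1 h at 30 °C in pH 7.4 Tris buffer with 0.1 nM [33P]-S1P and compound (10^−5 M, or various concentrations for IC50). Filter-bound radioactivity counted; background from non-transfected HEK-293 membranes; inhibition = [1−(A−C)/(B−C)]×100.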

For orientation: melting point means the temperature of the solid-liquid transition. For orientation: inhibition means the relative decrease from the control value, in per cent. Usually pIC50 stands for the IC50 on a negative log10 scale, so that one unit is a factor of ten. Low readings indicate a high IC50, high ones a low IC50.

Molecules are shown by their SMILES. pIC50: −log10 of the molar value.

T1 sequence (P21453 whole entry): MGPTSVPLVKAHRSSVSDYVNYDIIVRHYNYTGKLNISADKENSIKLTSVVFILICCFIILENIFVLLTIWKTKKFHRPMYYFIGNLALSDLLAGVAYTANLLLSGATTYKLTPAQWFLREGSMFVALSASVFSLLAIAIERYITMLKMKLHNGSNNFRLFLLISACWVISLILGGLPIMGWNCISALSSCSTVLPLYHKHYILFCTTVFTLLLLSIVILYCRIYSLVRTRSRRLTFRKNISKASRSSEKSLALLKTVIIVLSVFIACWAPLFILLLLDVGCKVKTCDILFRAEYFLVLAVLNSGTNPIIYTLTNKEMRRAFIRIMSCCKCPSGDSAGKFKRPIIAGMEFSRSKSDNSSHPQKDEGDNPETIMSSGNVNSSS

Regarding `CCn1c(C(C)NS(=O)(=O)c2ccc3c(Cl)ccc(Cl)c3c2)cnc1Oc1cccc(N2CCN(C)CC2)c1` (centres unmarked) [Compound 246], the melting point is 220 to 223 °C. Also, in data set [1], the inhibition at 10 µM worked out at 101% and the pIC50 is no less than 7.82.
For `CCn1c(C(C)NS(=O)(=O)c2ccc3cccc(Cl)c3c2)cnc1Oc1cccc(N2CCN(C)CC2)c1` (centres unmarked) [Compound 247] the same measures were 196 to 198 °C, 99.9% and no less than 7.82.
Consider `CCn1c(C(C)NS(=O)(=O)c2ccc(Cl)c(Cl)c2)cnc1S(=O)(=O)c1ccc(C)cc1` (centres unmarked) [Compound 252, 3,4-Dichloro-N-{1-[3-ethyl-2-(toluene-4-sulfonyl)-3H-imidazol-4-yl]-ethyl}-benzenesulfonamide], for which the melting point was 180 to 183 °C. The inhibition at 10 µM in data set [1] came to 52.5%.
